Results on nine molecules are retold here after patent US9540343B2 (Gilead Sciences, Inc., priority 2011, dated 2017).

Structures are written as SMILES.

One data set in a line: in vitro. The following applies: human, uninfected MT-4 cells, CC50 (nM), same protocol as Test A, CellTiter-Glo. The gist of the method: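 Cytoprotection read-out: CellTiter-Glo chemiluminescence after 5 days at 37 °C of HIV-IIIb-infected MT-4 cells (m.o.i. 0.003) with compound in 10-point 3-fold dilutions, quadruplicate, 10% FBS. Cytotoxicity (CC50) measured identically without virus.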
Background: ATP-based viability assays read luminescence as a measure of living cells.

Another data set relates to HIV-IIIb. Briefly: Test A: Antiviral assay in MT4 cells. It counts as cell-based, HIV-1. The following applies: MT-4 cells infected with HIV-IIIb, 5 days, CellTiter-Glo; for inhibition at 2 µM: Human immunodeficiency virus 1, IIIB, MT4, 120 h, read-out: % inhibition at 2 μM, percent inhibition of virus-induced cell killing, from dose response curve at 2 uM drug.

For the molecule `NC(=O)c1cc(-c2cccnc2[C@H](Cc2cc(F)cc(F)c2)NC(=O)Cn2ccnc2-c2ccccc2)ccc1F` [Example 149, (S)-5-(2-(2-(3,5-difluorophenyl)-1-(2-(2-phenyl-1H-imidazol-1-yl)acetamido)ethyl)pyridin-3-yl)-2-fluorobenzamide], the CC50 (as a rule, the concentration that lowers cell viability or growth by half) at 5 days in the data set “in vitro” was greater than 53200 nM. Moreover, in the data set with HIV-IIIb, the inhibition (commonly the share of the control response that was lost under treatment) at 2 µM turned out to be 2%.
The like results for `NC(=O)c1cc(-c2cccnc2[C@H](Cc2cc(F)cc(F)c2)NC(=O)Cn2nc(C(F)(F)F)c3c2CCC(F)(F)C3)ccc1F` [Example 150, (S)-5-(2-(1-(2-(5,5-difluoro-3-(trifluoromethyl)-4,5,6,7-tetrahydro-1H-indazol-1-yl)acetamido)-2-(3,5-difluorophenyl)ethyl)pyridin-3-yl)-2-fluorobenzamide] were, in that order, 18400 nM and 15%.
The like results for `NC(=O)c1cc(-c2cccnc2[C@H](Cc2cc(F)cc(F)c2)NC(=O)Cn2nc3c(c2C(F)(F)F)CCC3)ccc1F` [Example 151E, (S)-5-(2-(2-(3,5-difluorophenyl)-1-(2-(3-(trifluoromethyl)-5,6-dihydrocyclopenta[c]pyrazol-2(4H)-yl)acetamido)ethyl)pyridin-3-yl)-2-fluorobenzamide] were, in that order, 20300 nM and 11%.
The like results for `NC(=O)c1cc(-c2cccnc2[C@H](Cc2cc(F)cc(F)c2)NC(=O)Cc2nc3cccc4c3n2CCC4)ccc1F` [Example 152D, (S)-5-(2-(2-(3,5-difluorophenyl)-1-(2-(5,6-dihydro-4H-imidazo[4,5,1-ij]quinolin-2-yl)acetamido)ethyl)pyridin-3-yl)-2-fluorobenzamide] were, in that order, 28400 nM and 81%.
`NC(=O)c1cc(-c2cccnc2[C@H](Cc2cc(F)cc(F)c2)NC(=O)C2CCCN2C(=O)C2CCCC2)ccc1F` (stereo partly drawn) [Example 153, N—((S)-1-(3-(3-carbamoyl-4-fluorophenyl)pyridin-2-yl)-2-(3,5-difluorophenyl)ethyl)-1-(cyclopentanecarbonyl)pyrrolidine-2-carboxamide] had a half-maximal cytotoxic concentration (CC50) at 5 days in “in vitro” of 17300 nM. Also, the inhibition at 2 µM in the data set with HIV-IIIb is 10%.
With `NC(=O)c1cc(-c2cccnc2[C@H](Cc2cc(F)cc(F)c2)NC(=O)Cn2nc(C(F)(F)F)c3c2C(O)C2CC32)ccc1F` (stereo partly drawn) [Example 154, 5-(2-((1S)-2-(3,5-difluorophenyl)-1-(2-(5-hydroxy-3-(trifluoromethyl)-3b,4,4a,5-tetrahydro-1H-cyclopropa[3,4]cyclopenta[1,2-c]pyrazol-1-yl)acetamido)ethyl)pyridin-3-yl)-2-fluorobenzamide], it took 36800 nM to reach half-maximal cytotoxicity in the data set “in vitro” (CC50 at 5 days). Besides, in the data set on HIV-IIIb (percent inhibition of virus-induced cell killing, from dose response curve at 2 uM drug), the % inhibition (usually the share of the control response that was lost under treatment) at 2 μM came to 90%.
For the molecule `NC(=O)c1cc(-c2cccnc2[C@H](Cc2cc(F)cc(F)c2)NC(=O)[C@@H]2C[C@@H](OCc3ccccc3)CN2)ccc1F` [Example 157, (2S,4R)-4-(benzyloxy)-N—((S)-1-(3-(3-carbamoyl-4-fluorophenyl)pyridin-2-yl)-2-(3,5-difluorophenyl)ethyl)pyrrolidine-2-carboxamide], in “in vitro”, the CC50 at 5 days is 38300 nM. The inhibition at 2 µM in the data set with HIV-IIIb is 10%.
In the data set “in vitro”, `CC(C)(C)OC(=O)N1[C@@H](C(=O)N[C@@H](Cc2cc(F)cc(F)c2)c2ncccc2-c2ccc(F)c(C(N)=O)c2)CC[C@H]1c1ccccc1` [Example 158, (2R,5S)-tert-butyl 2-((S)-1-(3-(3-carbamoyl-4-fluorophenyl)pyridin-2-yl)-2-(3,5-difluorophenyl)ethylcarbamoyl)-5-phenylpyrrolidine-1-carboxylate] showed a CC50 at 5 days of 8500 nM. Besides, the inhibition at 2 µM in the data set with HIV-IIIb is 0%.
The like results for `NC(=O)c1cc(-c2cccnc2[C@H](Cc2cc(F)cc(F)c2)NC(=O)Cn2nc(C(F)(F)Oc3ccccc3)c3c2CCCC3)ccc1F` [Example 159, (S)-5-(2-(1-(2-(3-(difluoro(phenoxy)methyl)-4,5,6,7-tetrahydro-1H-indazol-1-yl)acetamido)-2-(3,5-difluorophenyl)ethyl)pyridin-3-yl)-2-fluorobenzamide] were, in that order, 19100 nM and 84%.
